In PubChem BioAssay (NCI):
Values joined by “and” are separate entries in the source; they are usually repeats but may differ in a detail not shown here. Identical values can stand only once.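 All cell lines were grown in 96-well plates and treated with compound for 48 hours. GI50 is the concentration that inhibits growth by half. TGI: total growth inhibition.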

Experiments:
Experiment in all cases: inhibition of tumour cell growth, NCI panel, 48 h
[1] = tested on: 786-0 renal
[2] = tested on: A498 renal
[3] = tested on: A549 NSCLC
[4] = tested on: ACHN renal
[5] = tested on: BT-549 breast
[6] = tested on: CAKI-1 renal
[7] = tested on: CCRF-CEM leukemia
[8] = tested on: COLO 205 colon
[9] = tested on: DU-145 prostate
[10] = tested on: EKVX NSCLC
[11] = tested on: HCC-2998 colon
[12] = tested on: HCT-116 colon
[13] = tested on: HCT-15 colon
[14] = tested on: HL-60(TB) leukemia
[15] = tested on: HOP-62 NSCLC
[16] = tested on: HOP-92 NSCLC
[17] = tested on: HS 578T breast
[18] = tested on: HT29 colon
[19] = tested on: IGROV1 ovarian
[20] = tested on: K-562 leukemia
[21] = tested on: KM12 colon
[22] = tested on: LOX IMVI melanoma
[23] = tested on: M14 melanoma
[24] = tested on: MALME-3M melanoma
[25] = tested on: MCF7 breast
[26] = tested on: MDA-MB-231 breast
[27] = tested on: MDA-MB-435
[28] = tested on: MOLT-4 leukemia
[29] = tested on: NCI-H226 lung
[30] = tested on: NCI-H23 lung
[31] = tested on: NCI-H460 lung
[32] = tested on: NCI-H522 lung
[33] = tested on: NCI/ADR-RES ovarian
[34] = tested on: OVCAR-3 ovarian
[35] = tested on: OVCAR-4 ovarian
[36] = tested on: OVCAR-5 ovarian
[37] = tested on: OVCAR-8 ovarian
[38] = tested on: PC-3 prostate
[39] = tested on: RPMI-8226 leukemia
[40] = tested on: RXF 393 renal
[41] = tested on: SF-268 CNS
[42] = tested on: SF-295 CNS
[43] = tested on: SF-539 CNS
[44] = tested on: SK-MEL-2 melanoma
[45] = tested on: SK-MEL-28 melanoma
[46] = tested on: SK-MEL-5 melanoma
[47] = tested on: SK-OV-3 ovarian
[48] = tested on: SN12C renal
[49] = tested on: SNB-19 CNS
[50] = tested on: SNB-75 CNS
[51] = tested on: SR leukemia
[52] = tested on: SW-620 colon
[53] = tested on: T-47D breast
[54] = tested on: TK-10 renal
[55] = tested on: U251 CNS
[56] = tested on: UACC-257 melanoma
[57] = tested on: UACC-62 melanoma
[58] = tested on: UO-31 renal
[59] = tested on: MDA-N

Q: What does the source list for `COc1ccccc1NC(=O)n1nc(N)c2ccccc21`?
A: GI50 [1]: > 84 µM; TGI [1]: > 100 µM; GI50 [2]: > 68.7 µM; TGI [2]: > 100 µM; GI50 [3]: > 86.9 µM; TGI [3]: > 100 µM; GI50 [4]: > 81.7 µM; TGI [4]: > 100 µM; GI50 [5]: 39.3 µM; TGI [5]: > 100 µM; GI50 [6]: > 100 µM; TGI [6]: > 100 µM; GI50 [7]: > 100 µM; TGI [7]: > 100 µM; GI50 [8]: > 100 µM; TGI [8]: > 100 µM; GI50 [9]: > 100 µM; TGI [9]: > 100 µM; GI50 [10]: 55.9 µM; TGI [10]: > 100 µM; GI50 [11]: > 81.4 µM; TGI [11]: > 100 µM; GI50 [12]: > 71.7 µM; TGI [12]: > 100 µM; GI50 [13]: 63.6 µM; TGI [13]: > 100 µM; GI50 [14]: 55 µM; TGI [14]: > 100 µM; GI50 [15]: > 69.3 µM; TGI [15]: > 100 µM; GI50 [16]: 22.7 µM; TGI [16]: 76.5 µM; GI50 [17]: 36.3 µM; TGI [17]: > 100 µM; GI50 [18]: > 73.4 µM; TGI [18]: > 100 µM; GI50 [19]: 14.7 µM; TGI [19]: > 100 µM; GI50 [20]: 99.8 µM; TGI [20]: > 100 µM; GI50 [21]: 47.4 µM; TGI [21]: > 100 µM; GI50 [22]: 82 µM; TGI [22]: > 100 µM; GI50 [23]: > 100 µM; TGI [23]: > 100 µM; GI50 [24]: > 100 µM; TGI [24]: > 100 µM; GI50 [25]: 0.0842 µM; TGI [25]: 4.32 µM; GI50 [26]: 66 µM; TGI [26]: > 100 µM; GI50 [27]: > 100 µM; TGI [27]: > 100 µM; GI50 [28]: 67.4 µM; TGI [28]: > 100 µM; GI50 [29]: > 74.7 µM; TGI [29]: > 100 µM; GI50 [30]: > 100 µM; TGI [30]: > 100 µM; GI50 [31]: 47.6 µM; TGI [31]: > 100 µM; GI50 [32]: 53.9 µM; TGI [32]: > 100 µM; GI50 [33]: 87.4 µM; TGI [33]: > 100 µM; GI50 [34]: > 100 µM; TGI [34]: > 100 µM; GI50 [35]: > 68.1 µM; TGI [35]: > 100 µM; GI50 [36]: > 100 µM; TGI [36]: > 100 µM; GI50 [37]: > 78.3 µM; TGI [37]: > 100 µM; GI50 [38]: 64.1 µM; TGI [38]: > 100 µM; GI50 [39]: 48.7 µM; TGI [39]: > 100 µM; GI50 [40]: 36.7 µM; TGI [40]: > 100 µM; GI50 [41]: > 48.1 µM; TGI [41]: > 100 µM; GI50 [42]: 52.1 µM; TGI [42]: > 100 µM; GI50 [43]: 58.4 µM; TGI [43]: > 100 µM; GI50 [44]: > 100 µM; TGI [44]: > 100 µM; GI50 [45]: > 100 µM; TGI [45]: > 100 µM; GI50 [46]: > 87.9 µM; TGI [46]: > 100 µM; GI50 [47]: > 100 µM; TGI [47]: > 100 µM; GI50 [48]: > 100 µM; TGI [48]: > 100 µM; GI50 [49]: > 100 µM; TGI [49]: > 100 µM; GI50 [50]: 37 µM; TGI [50]: > 100 µM; GI50 [51]: 92.4 µM; TGI [51]: > 100 µM; GI50 [52]: > 100 µM; TGI [52]: > 100 µM; GI50 [53]: 12.1 µM; TGI [53]: > 100 µM; GI50 [54]: 64.2 µM; TGI [54]: > 100 µM; GI50 [55]: 74.1 µM; TGI [55]: > 100 µM; GI50 [56]: > 100 µM; TGI [56]: > 100 µM; GI50 [57]: > 100 µM; TGI [57]: > 100 µM; GI50 [58]: > 63.3 µM; TGI [58]: > 100 µM

Q: With `CCOC(=O)Oc1cc2c(c(OC)c1OC)-c1ccc(SC)c(=O)cc1C(NC(=O)C(F)(F)F)CC2` (stereo not drawn) as the molecule, how does the TGI [1] read?
A: 13 µM

Q: And the TGI [2]?
A: 0.554 µM

Q: And the TGI [3]?
A: > 100 µM

Q: And the TGI [4]?
A: 52.8 µM

Q: And the TGI [6]?
A: 0.0928 µM

Q: And the TGI [7]?
A: 4.92 µM

Q: And the GI50 [8]?
A: 0.0447 µM

Q: And the TGI [8]?
A: 0.523 µM and 1.03 µM

Q: What about the GI50 [11] of the same molecule?
A: 0.0146 µM

Q: What about the TGI [13] of the same molecule?
A: > 100 µM

Q: What about the TGI [14] of the same molecule?
A: 0.0148 µM

Q: What about the TGI [15] of the same molecule?
A: > 100 µM

Q: And the TGI [16]?
A: 0.306 µM

Q: What about the TGI [17] of the same molecule?
A: < 0.001 µM

Q: And the TGI [19]?
A: 0.149 µM

Q: And the TGI [20]?
A: > 100 µM

Q: What about the TGI [23] of the same molecule?
A: 38.8 µM

Q: And the TGI [25]?
A: 19.5 µM

Q: And the TGI [27]?
A: < 0.001 µM

Q: What about the TGI [59] of the same molecule?
A: < 0.001 µM

Q: What about the TGI [29] of the same molecule?
A: 0.00301 µM

Q: And the GI50 [30]?
A: < 0.001 µM

Q: What about the TGI [31] of the same molecule?
A: 0.753 µM and 2.47 µM

Q: What about the TGI [32] of the same molecule?
A: 0.00253 µM

Q: And the GI50 [33]?
A: 0.023 µM

Q: And the GI50 [36]?
A: 18.2 µM

Q: What about the TGI [36] of the same molecule?
A: > 100 µM

Q: And the TGI [38]?
A: > 100 µM

Q: And the TGI [39]?
A: 14.1 µM

Q: What about the TGI [40] of the same molecule?
A: < 0.001 µM

Q: What about the TGI [42] of the same molecule?
A: > 100 µM

Q: What about the GI50 [44] of the same molecule?
A: 0.00303 µM

Q: And the TGI [44]?
A: 51.4 µM

Q: And the TGI [45]?
A: > 100 µM

Q: And the TGI [46]?
A: 0.00191 µM

Q: What about the GI50 [48] of the same molecule?
A: 0.0135 µM

Q: And the TGI [48]?
A: > 100 µM

Q: And the TGI [49]?
A: > 100 µM

Q: What about the TGI [50] of the same molecule?
A: > 100 µM

Q: And the TGI [51]?
A: 5.4 µM and 15.6 µM

Q: What about the TGI [52] of the same molecule?
A: > 100 µM

Q: What about the GI50 [53] of the same molecule?
A: 21.4 µM

Q: And the TGI [53]?
A: 81 µM

Q: And the TGI [55]?
A: 0.0148 µM

Q: What about the TGI [56] of the same molecule?
A: 37.9 µM

Q: What about the TGI [57] of the same molecule?
A: > 100 µM

Q: What about the TGI [58] of the same molecule?
A: 75.6 µM
